# What was measured:
# HDAC-1 = HDAC-1 (Homo sapiens, UniProt Q13547); experiment: HDAC inhibitory activity assay with HDAC-1 (fluorophore/quencher peptide substrate); type: biochemical; settings: enzyme/compound mix incubated at room temperature for 2 hours; reaction about 45 minutes; fluorescence read
# Procedure: (§1) HDAC inhibitory activity of the compound of Example 1 was measured by an assay in which HDAC-1 or -3 were used as a target molecule. The test compound was suspended in and titrated in DMSO. It was then spotted into a 384-well test plate. The enzyme, HDAC-1 or -3, was diluted in assay buffer containing 25 mM Tris-HCl (pH 8.0), 137 mM NaCl, 2.7 mM KCl, and 0.01% Tween-20 and added to the pre-spotted compound. The enzyme/compound mix was incubated at room temperature for 2 hours. The peptide substrate containing a fluorophore/quencher pair was diluted in the same assay buffer and added to the compound/enzyme mix initiating the reaction. The reaction incubated at room temperature for about 45 minutes. A concentrated developer solution was diluted in the assay buffer, and added to the reaction. The reaction was incubated at room temperature for about 15 minutes and relative fluorescence was read on an instrument reader.
# HDAC-3 = HDAC-3 (Homo sapiens, UniProt O15379); experiment: HDAC inhibitory activity assay with HDAC-3 (fluorophore/quencher peptide substrate); type: biochemical; settings: enzyme/compound mix incubated at room temperature for 2 hours; reaction about 45 minutes; fluorescence read
# Procedure: as §1
# Sequence of HDAC-1 (Q13547 whole entry, species assumed): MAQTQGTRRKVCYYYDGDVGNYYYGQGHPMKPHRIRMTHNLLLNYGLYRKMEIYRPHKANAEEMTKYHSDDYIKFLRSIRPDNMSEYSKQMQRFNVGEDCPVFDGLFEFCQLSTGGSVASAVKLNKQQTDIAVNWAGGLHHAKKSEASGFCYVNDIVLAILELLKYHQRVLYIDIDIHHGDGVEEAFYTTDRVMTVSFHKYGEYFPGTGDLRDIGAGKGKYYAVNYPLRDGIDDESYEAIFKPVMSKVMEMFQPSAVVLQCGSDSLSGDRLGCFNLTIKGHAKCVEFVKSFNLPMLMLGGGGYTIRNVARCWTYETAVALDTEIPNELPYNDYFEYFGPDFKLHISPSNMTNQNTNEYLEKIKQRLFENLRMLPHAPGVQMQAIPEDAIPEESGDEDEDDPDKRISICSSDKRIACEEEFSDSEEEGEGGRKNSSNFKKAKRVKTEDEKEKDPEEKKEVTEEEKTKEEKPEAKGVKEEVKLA
# Sequence of HDAC-3 (O15379 whole entry, species assumed): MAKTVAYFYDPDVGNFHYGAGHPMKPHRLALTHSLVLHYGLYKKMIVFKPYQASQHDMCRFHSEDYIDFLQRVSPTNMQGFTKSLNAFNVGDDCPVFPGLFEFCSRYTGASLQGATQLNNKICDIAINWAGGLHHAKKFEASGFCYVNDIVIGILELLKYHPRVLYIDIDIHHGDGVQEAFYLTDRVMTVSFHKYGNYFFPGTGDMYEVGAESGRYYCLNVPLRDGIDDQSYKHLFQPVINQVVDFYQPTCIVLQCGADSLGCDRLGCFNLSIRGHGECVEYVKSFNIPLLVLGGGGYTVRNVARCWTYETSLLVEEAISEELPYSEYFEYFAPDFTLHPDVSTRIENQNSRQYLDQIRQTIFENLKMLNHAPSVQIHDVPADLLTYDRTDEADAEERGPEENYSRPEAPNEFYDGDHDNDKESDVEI
# Sequence of HDAC-3 (Q9Y618 395-489 partner limits assumed, species assumed): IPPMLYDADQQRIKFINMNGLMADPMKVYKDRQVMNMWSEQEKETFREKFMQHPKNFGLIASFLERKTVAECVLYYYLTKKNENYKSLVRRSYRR
Compound,IC50 (HDAC-1),IC50 (HDAC-3)
"CC(C(=O)Nc1ccc(C(=O)Nc2ccccc2N)cc1)N1CCCC1=O (centres unmarked) [Example 4, N-(2-Aminophenyl)-4-(2-(2-oxopyrrolidin-1-yl)propanamido)benzamide]",0.0915 µM,0.3 µM
"CC(C(=O)Nc1ccc(C(=O)Nc2cc(-c3ccc(F)cc3)ccc2N)cc1)N1CCCC1=O (centres unmarked) [Example 7, N-(2-Amino-5-(4-fluorophenyl)phenyl)-4-(2-(2-oxopyrrolidin-1-yl)propanamido)benzamide]",0.0027 µM,1.54 µM
"CC(C)(C(=O)Nc1ccc(C(=O)Nc2cc(-c3ccc(F)cc3)ccc2N)cc1)N1CCOCC1 [Example 10, N-(2-Amino-5-(4-fluorophenyl)phenyl)-4-(2-methyl-2-morpholinopropanamido)benzamide]",0.0041 µM,3.63 µM
"CC(C(=O)Nc1ccc(C(=O)Nc2cc(-c3ccc(Cl)s3)ccc2N)cc1)N1CCCC1=O (centres unmarked) [Example 12, N-(2-Amino-5-(5-chlorothiophen-2-yl)phenyl)-4-(2-(2-oxopyrrolidin-1-yl)propanamido)benzamide]",0.0071 µM,2.23 µM
CC(C(=O)Nc1ccc(C(=O)Nc2cc(-c3ccc(F)cc3)ccc2N)cc1)N1CCOCC1 (centres unmarked) [Example 9],0.0047 µM,3.06 µM
"CC(C(=O)Nc1ccc(C(=O)Nc2cc(-c3cccs3)ccc2N)cc1F)N1CCCC1=O (centres unmarked) [Example 11, N-(2-Amino-5-(thiophen-2-yl)phenyl)-3-fluoro-4-(2-(2-oxopyrrolidin-1-yl)propanamido)benzamide]",0.0019 µM,1.04 µM
"CC(C(=O)Nc1ccc(C(=O)Nc2ccccc2N)cc1)N1CCCC1 (centres unmarked) [Example 1, N-(2-Amino-phenyl)-4-(2-pyrrolidin-1-yl-propionylamino)-benzamide]",0.201 µM,–
"Nc1ccccc1NC(=O)c1ccc(NC(=O)C(c2ccccc2)N2CCOCC2)cc1 (centres unmarked) [Example 6, N-(2-aminophenyl)-4-(2-morpholino-2-phenylacetamido)benzamide]",0.0253 µM,0.144 µM

# Further lines, results first:
IC50 (HDAC-1),IC50 (HDAC-3),Compound
0.0028 µM,1.35 µM,"CC(C(=O)Nc1ccc(C(=O)Nc2cc(-c3cccs3)ccc2N)cc1)N1CCOCC1 (centres unmarked) [Example 8, N-(2-Amino-5-(thiophen-2-yl)phenyl)-4-(2-morpholinopropanamido)benzamide]"
0.003 µM,3.11 µM,"CC(C(=O)Nc1ccc(C(=O)Nc2cc(-c3ccc(F)cc3)ccc2N)cc1)N1CCCC1 (centres unmarked) [Example 2, N-(2-Amino-5-(4-fluorophenyl)phenyl)-4-(2-(pyrrolidin-1-yl)propanamido)benzamide]"
0.003 µM,2.1 µM,"CC(C(=O)Nc1ccc(C(=O)Nc2cc(-c3cccs3)ccc2N)cc1)N1CCCC1 (centres unmarked) [Example 3, N-(2-Amino-5-(thiophen-2-yl)phenyl)-4-(2-(pyrrolidin-1-yl)propanamido)benzamide]"
0.0016 µM,1.04 µM,"CC(C(=O)Nc1ccc(C(=O)Nc2cc(-c3cccs3)ccc2N)cc1)N1CCCC1=O (centres unmarked) [Example 5, N-(2-Amino-5-(thiophen-2-yl)phenyl)-4-(2-(2-oxopyrrolidin-1-yl)propanamido)benzamide]"

# Reference: US8431610B2, “Alkanoylamino benzamide aniline HDAC inhibitor compounds” (Gilead Sciences, Inc., priority 2009, dated 2013)
